Key:
[1] = system: senescene accelerated mice (SAMP8); assay: grading scores as aging indicator in senescene accelerated mice; assay type: in vivo
Procedure: (§1) Senescene accelerated mice (SAMP8) (male, 8 months old at the beginning of the study) were used in the study.
(§2) Compound 24 dissolved in tap water was given to the senescene accelerated mice at a dosage of 0.001, 0.01, or 0.1 mg/kg/day as drinking water. Tap water was given to the control mice as drinking water.
As an aging indicator of senescene accelerated mice, grading scores (Takeda et al., 1981) were measured after 0, 4, 8, 12, and 16 weeks of drinking water dosing in a short term study and after 12, 16, 20, 24, 28, and 32 weeks of drinking water dosing in a long term study.

[2] = system: senescene accelerated mice (SAMP8); assay: amyloid β deposition in the hippocampus by amyloid β immunohistochemistry; assay type: in vivo; conditions: 0.002, 0.01 and 0.1 mg/kg/day in drinking water for 2 months, vs tap water
Procedure: Senescene accelerated mice (SAMP8) (male, 8 months old at the beginning of the study) were used for experiment. […] Eight weeks after the dosing, the mouse brain was removed, Methacarn-fixed (methanol:chloroform: acetic acid=6:3:1), and paraffin-embedded. Then, sections of 8 μm in thickness were prepared using a microtome.
The sections were immunostained with streptavidin-biotin using a VECTASTATIN ABC kit. After one hour of incubation in 10% normal goat serum, the anti-amyloid β (Aβ) antibody was diluted with PBS to ten fold and incubated at 4° C. overnight. The following day, PBS rinsing, 1.5 hours of incubation with biotinylated anti-rabbit secondary antibody, PBS rinsing, and 1.5 hours of incubation with peroxidase-labeled streptavidin were conducted. The immunoreaction was visualized with DAB and specimens were prepared.
Immunoreactive Aβ-like granules in the hippocampus were counted under the microscope. The Aβ-like immunoreactive granule was observed as brown deposits in the hippocampus. The count was made for one section per individual.

[3] = system: senescene accelerated mice (SAMP8); assay: survival rate / average life span of senescene accelerated mice; assay type: in vivo; conditions: 0.01 mg/kg/day in drinking water, vs control group given tap water, at any age in month
Procedure: as §1, §2
FIG. 6 is a graphical representation showing the influence of Compound 24 on the survival rate of senescene accelerated mice (SAMP8). The age in months of mice is plotted as abscissa and the survival rate (%) is plotted as ordinate.

[4] = system: gerbil transient forebrain ischemia model; assay: delayed neuronal death in hippocampus CA1 region, gerbil transient forebrain ischemia model; assay type: in vivo; conditions: four days after reperfusion
Procedure: Gerbils (male, weighing approximately 55 to 80 g) were pinched with an exposured bilateral common carotid artery by microclip to cause the cerebral ischemia under 2% halothane inhalation anesthesia. After four minutes of ischemia, the microclip was removed to reperfuse the cerebral ischemia and the anesthesia was stopped. Four days after the reperfusion, the brain was removed and formalin-fixed. Sections of 4 μm in thickness were prepared and stained with hematoxylin-eosin. Surviving cells in the entire hippocampus CA1 field on both sides of each specimen were counted using a micrometer under the microscope. The number of surviving cells per 0.5 mm was obtained.
Compound 24 was suspended in 1% HPC and orally given one hour before the cerebral ischemia and 5 hours after the reperfusion. Then, two doses per day were given from the following day to the third day since the perfusion. The surviving cell count in the hippocampus CA1 field was expressed by the average±standard error. The Mann-Whitney's U test was used to obtain significant differences. The effective oral dosage of Compound 24 was plotted as abscissa and the surviving cell count/0.5 mm was plotted as ordinate.

[5] = preclinical study (safety)

O=C1N=C2C=CC=CN2C12Cc1ccccc1C2 [Compound 24, spiro[imidazo[1,2-a]pyridin-2(3H)-one-3,2′-indan]]
grading score vs control, long term study ([1]; 0.01 mg/kg/day in drinking water, Weeks 20 to 32): significant differences (*, **) | grading score vs control, long term study ([1]; 0.1 mg/kg/day in drinking water, Weeks 16 to 32): significant differences (*, **) | grading score vs control, short term study ([1]; Week 16, 0.001, 0.01 and 0.1 mg/kg/day in drinking water): Significant differences (*) | grading score (aging indicator), short term study ([1]; in drinking water, up to 16 weeks, score of water group increased after Week 12): did not increase | number of amyloid β-immunoreactive granules in the hippocampus [2]: significantly (*) decreased | average life span (survival rate) [3]: average life span was extended | surviving cell count in the hippocampus CA1 field ([4]; 0.01 mg/kg oral, n=7, average±standard error): 27.8±1.9 /0.5 mm | surviving cell count in the hippocampus CA1 field ([4]; 0.1 mg/kg oral, n=8, average±standard error): 32.5±9.4 /0.5 mm | surviving cell count in the hippocampus CA1 field ([4]; 1 mg/kg oral, n=9, average±standard error): 44.3±9.4 /0.5 mm | safety in a preclinical study [5]: highly safe
